Test results as given in ChEMBL document CHEMBL1129762, “Synthesis and antibacterial activity of 4- and 8-methoxy trinems” (1996).

Test system: Clostridium perfringens
Assay: In vitro antibacterial activity against Clostridium perfringens 615E
Assay type: functional

Row | SMILES | MIC [µg/mL]
1 | CO[C@@]12CCCCC1=C(C(=O)[O-])N1C(=O)[C@H]([C@@H](C)O)[C@H]12.[K+] | 2000
2 | CO[C@H]1CCC[C@@H]2C1=C(C(=O)[O-])N1C(=O)[C@H]([C@@H](C)O)C21.[K+] (some centres not stated) | 4000
3 | CO[C@]12CCCCC1=C(C(=O)[O-])N1C(=O)[C@H]([C@@H](C)O)[C@H]12.[K+] | 2000
4 | CO[C@H]1CCC[C@H]2C1=C(C(=O)[O-])N1C(=O)[C@H]([C@@H](C)O)C21.[K+] (some centres not stated) | 30
5 | CO[C@@H]1CCC[C@H]2C1=C(C(=O)[O-])N1C(=O)[C@H]([C@@H](C)O)C21.[K+] (some centres not stated) | 120
6 | CO[C@@H]1CCC[C@@H]2C1=C(C(=O)[O-])N1C(=O)[C@H]([C@@H](C)O)C21.[K+] (some centres not stated) | 1000
7 | C[C@@H](O)[C@H]1C(=O)N2C(C(=O)O)=C(SCCNC=N)C[C@H]12.O [IMIPENEM] | 30

Test system: Enterococcus faecalis
Assay: In vitro antibacterial activity against Enterococcus faecalis 850.
Assay type: functional

Row | SMILES | MIC [µg/mL]
8 | CO[C@@]12CCCCC1=C(C(=O)[O-])N1C(=O)[C@H]([C@@H](C)O)[C@H]12.[K+] | 16
9 | CO[C@H]1CCC[C@@H]2C1=C(C(=O)[O-])N1C(=O)[C@H]([C@@H](C)O)C21.[K+] (some centres not stated) | 32
10 | CO[C@]12CCCCC1=C(C(=O)[O-])N1C(=O)[C@H]([C@@H](C)O)[C@H]12.[K+] | 32
11 | CO[C@H]1CCC[C@H]2C1=C(C(=O)[O-])N1C(=O)[C@H]([C@@H](C)O)C21.[K+] (some centres not stated) | 1
12 | CO[C@@H]1CCC[C@H]2C1=C(C(=O)[O-])N1C(=O)[C@H]([C@@H](C)O)C21.[K+] (some centres not stated) | 8
13 | CO[C@@H]1CCC[C@@H]2C1=C(C(=O)[O-])N1C(=O)[C@H]([C@@H](C)O)C21.[K+] (some centres not stated) | 32
14 | C[C@@H](O)[C@H]1C(=O)N2C(C(=O)O)=C(SCCNC=N)C[C@H]12.O [IMIPENEM] | 2

Test system: Escherichia coli
Assay: In vitro antibacterial activity against Escherichia coli 1850
Assay type: functional

Row | SMILES | MIC [µg/mL]
15 | CO[C@@]12CCCCC1=C(C(=O)[O-])N1C(=O)[C@H]([C@@H](C)O)[C@H]12.[K+] | 8
16 | CO[C@H]1CCC[C@@H]2C1=C(C(=O)[O-])N1C(=O)[C@H]([C@@H](C)O)C21.[K+] (some centres not stated) | 32
17 | CO[C@]12CCCCC1=C(C(=O)[O-])N1C(=O)[C@H]([C@@H](C)O)[C@H]12.[K+] | 32
18 | CO[C@H]1CCC[C@H]2C1=C(C(=O)[O-])N1C(=O)[C@H]([C@@H](C)O)C21.[K+] (some centres not stated) | 0.5
19 | CO[C@@H]1CCC[C@H]2C1=C(C(=O)[O-])N1C(=O)[C@H]([C@@H](C)O)C21.[K+] (some centres not stated) | 1
20 | CO[C@@H]1CCC[C@@H]2C1=C(C(=O)[O-])N1C(=O)[C@H]([C@@H](C)O)C21.[K+] (some centres not stated) | 16
21 | C[C@@H](O)[C@H]1C(=O)N2C(C(=O)O)=C(SCCNC=N)C[C@H]12.O [IMIPENEM] | 0.5

Test system: Escherichia coli
Assay: In vitro antibacterial activity against Escherichia coli 1919
Assay type: functional

Row | SMILES | MIC [µg/mL]
22 | CO[C@@]12CCCCC1=C(C(=O)[O-])N1C(=O)[C@H]([C@@H](C)O)[C@H]12.[K+] | 4
23 | CO[C@H]1CCC[C@@H]2C1=C(C(=O)[O-])N1C(=O)[C@H]([C@@H](C)O)C21.[K+] (some centres not stated) | 16
24 | CO[C@]12CCCCC1=C(C(=O)[O-])N1C(=O)[C@H]([C@@H](C)O)[C@H]12.[K+] | 8
25 | CO[C@H]1CCC[C@H]2C1=C(C(=O)[O-])N1C(=O)[C@H]([C@@H](C)O)C21.[K+] (some centres not stated) | 0.5
26 | CO[C@@H]1CCC[C@H]2C1=C(C(=O)[O-])N1C(=O)[C@H]([C@@H](C)O)C21.[K+] (some centres not stated) | 4
27 | CO[C@@H]1CCC[C@@H]2C1=C(C(=O)[O-])N1C(=O)[C@H]([C@@H](C)O)C21.[K+] (some centres not stated) | 16
28 | C[C@@H](O)[C@H]1C(=O)N2C(C(=O)O)=C(SCCNC=N)C[C@H]12.O [IMIPENEM] | 0.5

Test system: Staphylococcus aureus
Assay: In vitro antibacterial activity against Staphylococcus aureus 663E.
Assay type: functional

Row | SMILES | MIC [µg/mL]
29 | CO[C@@]12CCCCC1=C(C(=O)[O-])N1C(=O)[C@H]([C@@H](C)O)[C@H]12.[K+] | 4
30 | CO[C@H]1CCC[C@@H]2C1=C(C(=O)[O-])N1C(=O)[C@H]([C@@H](C)O)C21.[K+] (some centres not stated) | 2
31 | CO[C@]12CCCCC1=C(C(=O)[O-])N1C(=O)[C@H]([C@@H](C)O)[C@H]12.[K+] | 4
32 | CO[C@H]1CCC[C@H]2C1=C(C(=O)[O-])N1C(=O)[C@H]([C@@H](C)O)C21.[K+] (some centres not stated) | 0.25
33 | CO[C@@H]1CCC[C@H]2C1=C(C(=O)[O-])N1C(=O)[C@H]([C@@H](C)O)C21.[K+] (some centres not stated) | 0.5
34 | CO[C@@H]1CCC[C@@H]2C1=C(C(=O)[O-])N1C(=O)[C@H]([C@@H](C)O)C21.[K+] (some centres not stated) | 2
35 | C[C@@H](O)[C@H]1C(=O)N2C(C(=O)O)=C(SCCNC=N)C[C@H]12.O [IMIPENEM] | 0.12

Test system: Staphylococcus aureus
Assay: In vitro antibacterial activity against Staphylococcus aureus 853.
Assay type: functional

Row | SMILES | MIC [µg/mL]
36 | CO[C@@]12CCCCC1=C(C(=O)[O-])N1C(=O)[C@H]([C@@H](C)O)[C@H]12.[K+] | 4
37 | CO[C@H]1CCC[C@@H]2C1=C(C(=O)[O-])N1C(=O)[C@H]([C@@H](C)O)C21.[K+] (some centres not stated) | 1
38 | CO[C@]12CCCCC1=C(C(=O)[O-])N1C(=O)[C@H]([C@@H](C)O)[C@H]12.[K+] | 8
39 | CO[C@H]1CCC[C@H]2C1=C(C(=O)[O-])N1C(=O)[C@H]([C@@H](C)O)C21.[K+] (some centres not stated) | 0.25
40 | CO[C@@H]1CCC[C@H]2C1=C(C(=O)[O-])N1C(=O)[C@H]([C@@H](C)O)C21.[K+] (some centres not stated) | 0.5
41 | CO[C@@H]1CCC[C@@H]2C1=C(C(=O)[O-])N1C(=O)[C@H]([C@@H](C)O)C21.[K+] (some centres not stated) | 2
42 | C[C@@H](O)[C@H]1C(=O)N2C(C(=O)O)=C(SCCNC=N)C[C@H]12.O [IMIPENEM] | 0.1
